{
  "source": "patent US11859248B2",
  "about": "“Nucleic acid modification and identification method” (IMBA—INSTITUT FÜR MOLEKULARE BIOTECHNOLOGIE GMBH, priority 2017, dated 2024)",
  "key": {"[1]": {"test_system": "Drosophila S2 cells", "assay": "Viability of Drosophila S2 cells under s^4U labeling conditions", "assay_type": "cell-based, Drosophila melanogaster", "details": "500 μM, 24 h"}, "[2]": {"test_system": "mES cells", "assay": "HPLC analysis of s^4U-incorporation into total RNA of mES cells after metabolic labeling", "assay_type": "cell-based, mouse", "details": "100 μM s^4U, 24 h labeling", "experimental": "(§1) Analysis of s^4U- or s^6G-incorporation into total RNA following metabolic labeling was performed as previously described by Spitzer et al. (Meth Enzymol. 539, 113-161 (2014)).\n(§2) mES cells were seeded the day before the experiment at a density of 10^5 cells/ml in 10 cm dishes. s^4U-metabolic labeling was performed by incubation of mES cells in standard medium but adding 100 μM s^4U or s^6G (SIGMA) from a 500 mM stock solution in water. During the metabolic labeling, s^4U or s^6G containing medium was exchanged every 3 h. For the uridine chase experiment, s^4U or s^6G containing medium was discarded, cells were washed twice with 1× PBS and incubated with standard medium supplemented with 10 mM uridine (SIGMA). Cells were directly lysed in TRIzol® (Ambion) and RNA was extracted following the manufacturer instructions except that 0.1 mM final concentration of DTT was added during isopropanol precipitation. RNA was resuspended in 1 mM DTT. […]\nWe tested the ability of mouse embryonic stem cells to tolerate s^4U metabolic RNA-labeling after 12 h or 24 h at varying s^4U concentrations (FIG. 6A). […] Under these conditions, we detected a steady increase in s^4U-incorporation in total RNA preparation 3 h, 6 h, 12 h, and 24 h post labeling, as well as a steady decrease 3 h, 6 h, 12 h, and 24 h after uridine chase (FIG. 6B). […]"}, "[3]": {"test_system": "Drosophila S2 cells", "assay": "Small RNA sequencing of Drosophila S2 cells after s^4U metabolic labeling", "assay_type": "cell-based, Drosophila melanogaster", "experimental": "(§3) Upon generating libraries from size-selected total RNA of Drosophila S2 cells after s^4U metabolic labeling for 24 hours, we observed a strong accumulation of T>C conversions when compared to libraries prepared from unlabeled cells, as exemplified for the miR-184 locus, which gives rise to an abundantly expressed microRNA, miR-184-3p, and its less abundant miR*, miR-184-5p (FIG. 12A). In order to confirm this observation at the genomic scale, we aligned reads to annotated microRNA loci in the Drosophila genome and inspected the frequency of any given mutation normalized to overall T-content per miRNA (FIG. 12B). In the absence of s^4U metabolic labeling, we observed a median mutation rate of less than 0.1% for any given mutation, a rate that is consistent with Illumina-reported sequencing error rates. (Note, that iodoacetamide treatment of unlabeled total RNA had no detectable impact on small RNA abundance and mutation rate, as determined by high-throughput sequencing. See FIG. 19). After 24 h of s^4U metabolic labeling, we observed a statistically significant (p<10^−4, Mann-Whitney test), 74-fold increase in T>C mutation rates, while all other mutations remained below expected sequencing error rates (FIG. 12B)."}, "[4]": {"test_system": "Drosophila S2 cells", "assay": "HPLC analysis of s^4U-incorporation into total RNA of Drosophila S2 cells", "assay_type": "cell-based, Drosophila melanogaster", "details": "500 μM s^4U, 24 h", "experimental": "as §1\nas §3, with “After 24 h of s^4U metabolic labeling, we observed a statistically significant (p<10^−4, Mann-Whitney test), 74-fold increase in T>C mutation rates, while all other mutations remained below expected sequencing error rates (FIG. 12B).” left out"}, "[5]": {"test_system": "mES cells", "assay": "mRNA 3' end sequencing (Quant-seq/SLAM-seq) of mES cells after s^4U metabolic labeling", "assay_type": "cell-based, mouse", "experimental": "as §2, with “(SIGMA).” for “(SIGMA). Cells were directly lysed in TRIzol® (Ambion) and RNA was extracted following the manufacturer instructions except that 0.1 mM final concentration of DTT was added during isopropanol precipitation. RNA was resuspended in 1 mM DTT.”\nFor analysis of mRNA 3′ end sequencing (Quant-seq) datasets, reads were demultiplexed using Picard Tools BamIndexDecoder v1.13 allowing 1 mismatch in the barcode. Five nucleotides at the 5′ end of demultiplexed reads were trimmed. Reads were aligned to mouse genome mm10 and alignments in annotated 3′ UTRs (Gencode) were counted using SLAMdunk (Neumann & Rescheneder, t-neumann.github.io/slamdunk/; Herzog et al., Nature Methods 14, 1198-1204 (2017)). Briefly, SLAMdunk relies on NextGenMap, a flexible and fast read mapping program, and was tailored using an adapted scoring scheme eliminating T>C mismatch penalties for the mapping step. T>C containing reads and non-T>C containing reads aligning to 3′ UTRs were quantified to deduce s^4U- or unlabeled transcript abundance, respectively. […]"}},
  "data": [
    {"smiles": "O=c1[nH]c(=S)ccn1[C@@H]1O[C@H](CO)[C@@H](O)[C@H]1O", "note": "[s^4U, 4-thiouridine]", "values": [
      {"measurement": "effect on cell viability", "setting": "[1]", "result": "do not interfere with cell viability"},
      {"measurement": "maximum average s^4U incorporation in total RNA", "setting": "[2]", "result": 1.78, "unit": "%"},
      {"measurement": "median s^4U-incorporation in miRNAs", "setting": "[3]; 500 μM s^4U, 24 h labeling", "result": 2.22, "unit": "%"},
      {"measurement": "increase in T>C mutation rates", "setting": "[3]; 24 h labeling vs unlabeled", "result": 74, "unit": "fold"},
      {"measurement": "labeling efficiency in total RNA", "setting": "[4]", "result": 2.3, "unit": "%"},
      {"measurement": "median s^4U-incorporation in mRNA (3' UTRs)", "setting": "[5]; 24 h labeling", "result": 2.56, "unit": "%"},
      {"measurement": "increase in T>C mutation rates", "setting": "[5]; 24 h labeling vs unlabeled", "result": 25, "unit": "fold"}
    ]}
  ]
}
